Reference: US20080182874A1, “Novel Compounds” (priority 2004, published 2008)

Molecular target: T1, P2X7 receptor (Homo sapiens, UniProt Q99572)
T1 construct: 200 μl of a suspension of THP-1 cells (2.5×10^6 cells/ml) containing 10^−4M ethidium bromide; endogenous in cells; host or cells: THP-1 cells
T1 sequence (Q99572 1-595): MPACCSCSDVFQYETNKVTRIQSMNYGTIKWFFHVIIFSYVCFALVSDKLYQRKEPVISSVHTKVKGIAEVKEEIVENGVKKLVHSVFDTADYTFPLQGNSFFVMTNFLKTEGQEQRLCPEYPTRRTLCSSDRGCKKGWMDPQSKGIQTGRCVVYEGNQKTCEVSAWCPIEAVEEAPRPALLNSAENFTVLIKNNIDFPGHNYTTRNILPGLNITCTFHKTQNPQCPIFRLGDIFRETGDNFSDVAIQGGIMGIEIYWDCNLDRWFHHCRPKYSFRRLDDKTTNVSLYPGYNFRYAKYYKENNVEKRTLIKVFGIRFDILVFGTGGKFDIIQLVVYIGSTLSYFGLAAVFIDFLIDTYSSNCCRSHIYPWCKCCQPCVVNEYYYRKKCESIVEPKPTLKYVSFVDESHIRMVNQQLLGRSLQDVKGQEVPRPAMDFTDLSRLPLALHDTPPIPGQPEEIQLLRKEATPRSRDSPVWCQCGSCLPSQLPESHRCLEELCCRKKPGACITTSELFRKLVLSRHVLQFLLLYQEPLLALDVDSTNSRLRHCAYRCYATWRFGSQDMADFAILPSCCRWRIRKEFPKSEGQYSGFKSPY
Assay: bbATP-induced ethidium bromide uptake in THP-1 cells (P2X7 antagonist activity)
Type: cell-based
Details: not given
From the text: Certain compounds such as benzoylbenzoyl adenosine triphosphate (bbATP) are known to be agonists of the P2X7 receptor, effecting the formation of pores in the plasma membrane (Drug Development Research (1996), 37(3), p. 126). Consequently, when the receptor is activated using bbATP in the presence of ethidium bromide (a fluorescent DNA probe), an increase in the fluorescence of intracellular DNA-bound ethidium bromide is observed. The increase in fluorescence can be used as a measure of P2X7 receptor activation and therefore to quantify the effect of a compound on the P2X7 receptor.
In this manner, each of the title compounds of the Examples was tested for antagonist activity at the P2X7 receptor. […] The plate was covered with a plastics sheet and incubated at 37° C. for one hour. The plate was then read in a Perkin-Elmer fluorescent plate reader, excitation 520 nm, emission 595 nm, slit widths: Ex 15 nm, Em 20 nm. For the purposes of comparison, bbATP (a P2X7 receptor agonist) and pyridoxal 5-phosphate (a P2X7 receptor antagonist) were used separately in the test as controls.

Compound | IC50 [nM]
O=C(NCC12CC3CC(CC(C3)C1)C2)c1c(Cl)ccc2nc(N3CCC[C@@H](C(=O)O)C3)ccc12 [Example 3, 1-[6-Chloro-5-[[(tricyclo[3.3.1.1^3,7]dec-1-ylmethyl)amino]carbonyl]-2-quinolinyl]-(3R)-3-piperidinecarboxylic acid] | 79.4
O=C(O)CCN[C@H]1CCCN(c2ccc3c(C(=O)NCC45CC6CC(CC(C6)C4)C5)c(Cl)ccc3n2)C1 [Example 12, N-[(3S)-1-[6-Chloro-5-[[(tricyclo[3.3.1.1^3,7]dec-1-ylmethyl)amino]carbonyl]-2-quinolinyl]-3-piperidinyl]-β-alanine] | 15.8

Same assay, conditions: THP-1 cells, 10^-5M bbATP agonist, ethidium bromide fluorescence, 37° C. for one hour; negative logarithm of concentration reducing bbATP agonist activity by 50%; read-out: pIC50 (converted)

Compound | IC50 [nM]
O=C(O)c1cccc(-c2ccc3c(C(=O)NCC45CC6CC(CC(C6)C4)C5)c(Cl)ccc3n2)c1 [Example 24, 3-[6-Chloro-5-[[(tricyclo[3.3.1.1^3,7]dec-1-ylmethyl)amino]carbonyl]-2-quinolinyl]-benzoic acid] | 63.1

System: not given
Assay: not given
Details: not given

Compound | melting point [°C]
O=C(CC12CC3CC(CC(C3)C1)C2)Nc1c(Cl)ccc2nc(N3CCC(C(=O)O)CC3)ccc12 [Example 1, 1-[6-Chloro-5-[(tricyclo[3.3.1.1^3,7]dec-1-ylacetyl)amino]-2-quinolinyl]-4-piperidinecarboxylic acid] | 240 to 241
O=C(NCC12CC3CC(CC(C3)C1)C2)c1c(Cl)ccc2nc(N3CCC[C@@H]3C(=O)O)ccc12 [Example 2, 1-[6-Chloro-5-[[(tricyclo[3.3.1.1^3,7]dec-1-ylmethyl)amino]carbonyl]-2-quinolinyl]-D-proline] | 157 to 160
O=C(NCC12CC3CC(CC(C3)C1)C2)c1c(Cl)ccc2nc(N3CCC[C@@H](C(=O)O)C3)ccc12 [Example 3, 1-[6-Chloro-5-[[(tricyclo[3.3.1.1^3,7]dec-1-ylmethyl)amino]carbonyl]-2-quinolinyl]-(3R)-3-piperidinecarboxylic acid] | 257 to 262
O=C(NCC12CC3CC(CC(C3)C1)C2)c1c(Cl)ccc2nc(N3CCC(n4cn[nH]c4=O)CC3)ccc12 [Example 4, 6-Chloro-2-[4-(1,5-dihydro-5-oxo-4H-1,2,4-triazol-4-yl)-1-piperidinyl]-N-(tricyclo[3.3.1.1^3,7]dec-1-ylmethyl)-5-quinolinecarboxamide] | 294 to 295
O=C(O)CN1CCN(c2ccc3c(C(=O)NCC45CC6CC(CC(C6)C4)C5)c(Cl)ccc3n2)CC1 [Example 5, 4-[6-Chloro-5-[[(tricyclo[3.3.1.1^3,7]dec-1-ylmethyl)amino]carbonyl]-2-quinolinyl]-1-piperazineacetic acid] | 179 to 183
O=C(NCC12CC3CC(CC(C3)C1)C2)c1c(Cl)ccc2nc(N3CC[C@H](NCCc4nnn[nH]4)C3)ccc12 [Example 6, 6-Chloro-2-[(3S)-3-[[2-(2H-tetrazol-5-yl)ethyl]amino]-1-pyrrolidinyl]-N-(tricyclo[3.3.1.1^3,7]dec-1-ylmethyl)-5-quinolinecarboxamide] | 174 to 177
O=C(NCC12CC3CC(CC(C3)C1)C2)c1c(Cl)ccc2nc(N3CCC(C(=O)O)CC3)ccc12 [Example 7, 1-[6-Chloro-5-[[(tricyclo[3.3.1.1^3,7]dec-1-ylmethyl)amino]carbonyl]-2-quinolinyl]-4-piperidinecarboxylic acid] | 231 to 235
O=C(O)CC1CCN(c2ccc3c(C(=O)NCC45CC6CC(CC(C6)C4)C5)c(Cl)ccc3n2)CC1 [Example 8, 1-[6-Chloro-5-[[(tricyclo[3.3.1.1^3,7]dec-1-ylmethyl)amino]carbonyl]-2-quinolinyl]-4-piperidineacetic acid] | 212 to 214
O=C(NCC12CC3CC(CC(C3)C1)C2)c1c(Cl)ccc2nc(CCCCc3nnn[nH]3)ccc12 [Example 9, 6-Chloro-2-[4-(2H-tetrazol-5-yl)butyl]-N-(tricyclo[3.3.1.1^3,7]dec-1-ylmethyl)-5-quinolinecarboxamide] | 221
O=C(O)CCN[C@H]1CCCN(c2ccc3c(C(=O)NCC45CC6CC(CC(C6)C4)C5)c(Cl)ccc3n2)C1 [Example 12, N-[(3S)-1-[6-Chloro-5-[[(tricyclo[3.3.1.1^3,7]dec-1-ylmethyl)amino]carbonyl]-2-quinolinyl]-3-piperidinyl]-β-alanine] | 176 to 189
O=C(NCC12CC3CC(CC(C3)C1)C2)c1c(Cl)ccc2nc(N3CCC(O)(C(=O)O)CC3)ccc12 [Example 17, 1-[6-Chloro-5-[[(tricyclo[3.3.1.1^3,7]dec-1-ylmethyl)amino]carbonyl]-2-quinolinyl]-4-hydroxy-4-piperidinecarboxylic acid] | 200 to 204
O=C(NCC12CC3CC(CC(C3)C1)C2)c1c(Cl)ccc2nc(N3CCC(C(=O)O)(c4ccccc4)CC3)ccc12 [Example 18, 1-[6-Chloro-5-[[(tricyclo[3.3.1.1^3,7]dec-1-ylmethyl)amino]carbonyl]-2-quinolinyl]-4-phenyl-4-piperidinecarboxylic acid] | 235 to 237
O=C(NCC12CC3CC(CC(C3)C1)C2)c1c(Cl)ccc2nc(N3C[C@@H]4[C@H](C3)[C@H]4C(=O)O)ccc12 [Example 19, (1R,5S)-3-[6-Chloro-5-[[(tricyclo[3.3.1.1^3,7]dec-1-ylmethyl)amino]carbonyl]-2-quinolinyl]-3-azabicyclo[3.1.0]hexane-6-carboxylic acid] | 175 to 180
CS(=O)(=O)NC(=O)C1CCN(c2ccc3c(C(=O)NCC45CC6CC(CC(C6)C4)C5)c(Cl)ccc3n2)CC1 [Example 20, 6-Chloro-2-[4-[[(methylsulfonyl)amino]carbonyl]-1-piperidinyl]-N-(tricyclo[3.3.1.1^3,7]dec-1-ylmethyl)-5-quinolinecarboxamide] | 170 to 173
O=C(NCC12CC3CC(CC(C3)C1)C2)c1c(Cl)ccc2nc(N3CCC(C(=O)NO)CC3)ccc12 [Example 21, 6-chloro-2-[4-[(hydroxyamino)carbonyl]-1-piperidinyl]-N-(tricyclo[3.3.1.1^3,7]dec-1-ylmethyl)-5-quinolinecarboxamide] | 189 to 196
O=C(O)c1ccccc1-c1ccc2c(C(=O)NCC34CC5CC(CC(C5)C3)C4)c(Cl)ccc2n1 [Example 23, 2-[6-Chloro-5-[[(tricyclo[3.3.1.1^3,7]dec-1-ylmethyl)amino]carbonyl]-2-quinolinyl]-benzoic acid] | 156 to 158
O=C(O)c1ccc(-c2ccc3c(C(=O)NCC45CC6CC(CC(C6)C4)C5)c(Cl)ccc3n2)cc1 [Example 25, 4-[6-Chloro-5-[[(tricyclo[3.3.1.1^3,7]dec-1-ylmethyl)amino]carbonyl]-2-quinolinyl]-benzoic acid] | 316 to 317
O=C(O)CCNc1ccc2c(C(=O)NCC34CC5CC(CC(C5)C3)C4)c(Cl)ccc2n1 [Example 27, N-[6-Chloro-5-[[(tricyclo[3.3.1.1^3,7]dec-1-ylmethyl)amino]carbonyl]-2-quinolinyl]-β-alanine] | 251 to 252
O=C(O)c1cncc(-c2ccc3c(C(=O)NCC45CC6CC(CC(C6)C4)C5)c(Cl)ccc3n2)c1 [Example 28, 5-[6-Chloro-5-[[(tricyclo[3.3.1.1^3,7]dec-1-ylmethyl)amino]carbonyl]-2-quinolinyl]-3-pyridinecarboxylic acid] | 247
